Assay results published in patent US10221239B2, “TRPM4 channel inhibitors for stroke treatment” (Singapore Health Services Pte Ltd, priority 2013, dated 2019).
“Also recorded” adds a separate entry of the source.

Experiments:
HUVECs [1] = assay: Tube formation of HUVECs on Matrigel after OGD; type: cell-based, human; conditions: 5 μM
Protocol: (§1) HUVECs (Lonza, Wokingham, UK) were cultured at 37° C. with 5% CO2. The culture medium is endothelial growth medium-2 (EGM-2) consisting of endothelial basal medium (EBM), supplemented with 2% fetal bovine serum, hydrocortisone, hFGF, VEGF, R3-IGF-1, ascorbic acid, HEGF, GA-1000, and heparin (Lonza, Wokingham, UK). Cells at passage 6-10 were used for experiments. HUVECs were subjected to oxygen/glucose deprivation (OGD). To achieve supplement deprivation, EGM-2 was changed to EBM without fetal bovine serum or growth supplements. Hypoxia was induced by culturing the cells in a hypoxic chamber (Stem Cell Technologies, Vancouver, Canada) with 1% O2 and 5% CO2 at 37° C. for 24 hours.
HUVECs were divided into the following groups: Normoxia; Normoxia+5 μM 9-phenanthrol (Sigma); Hypoxia; and Hypoxia+5 μM 9-phenanthrol. A 24-well culture plate was precoated with 250 μl of growth factor-reduced Matrigel (Sigma, USA) at 37° C. for 30 minutes. 24 hours after OGD, 4×10^4 cells (in 300 μl of EGM-2) from each group were seeded onto the Matrigel-coated plates. The formation of capillary structures was examined under a light microscope after 4 hours. This study was replicated more than 4 times.

TRPM5 channel = target: T1, TRPM5 channel (Homo sapiens, UniProt Q9NZQ8); conditions: Grand T, et al. 2008; cited from earlier work
T1 sequence (Q9NZQ8 1-1165): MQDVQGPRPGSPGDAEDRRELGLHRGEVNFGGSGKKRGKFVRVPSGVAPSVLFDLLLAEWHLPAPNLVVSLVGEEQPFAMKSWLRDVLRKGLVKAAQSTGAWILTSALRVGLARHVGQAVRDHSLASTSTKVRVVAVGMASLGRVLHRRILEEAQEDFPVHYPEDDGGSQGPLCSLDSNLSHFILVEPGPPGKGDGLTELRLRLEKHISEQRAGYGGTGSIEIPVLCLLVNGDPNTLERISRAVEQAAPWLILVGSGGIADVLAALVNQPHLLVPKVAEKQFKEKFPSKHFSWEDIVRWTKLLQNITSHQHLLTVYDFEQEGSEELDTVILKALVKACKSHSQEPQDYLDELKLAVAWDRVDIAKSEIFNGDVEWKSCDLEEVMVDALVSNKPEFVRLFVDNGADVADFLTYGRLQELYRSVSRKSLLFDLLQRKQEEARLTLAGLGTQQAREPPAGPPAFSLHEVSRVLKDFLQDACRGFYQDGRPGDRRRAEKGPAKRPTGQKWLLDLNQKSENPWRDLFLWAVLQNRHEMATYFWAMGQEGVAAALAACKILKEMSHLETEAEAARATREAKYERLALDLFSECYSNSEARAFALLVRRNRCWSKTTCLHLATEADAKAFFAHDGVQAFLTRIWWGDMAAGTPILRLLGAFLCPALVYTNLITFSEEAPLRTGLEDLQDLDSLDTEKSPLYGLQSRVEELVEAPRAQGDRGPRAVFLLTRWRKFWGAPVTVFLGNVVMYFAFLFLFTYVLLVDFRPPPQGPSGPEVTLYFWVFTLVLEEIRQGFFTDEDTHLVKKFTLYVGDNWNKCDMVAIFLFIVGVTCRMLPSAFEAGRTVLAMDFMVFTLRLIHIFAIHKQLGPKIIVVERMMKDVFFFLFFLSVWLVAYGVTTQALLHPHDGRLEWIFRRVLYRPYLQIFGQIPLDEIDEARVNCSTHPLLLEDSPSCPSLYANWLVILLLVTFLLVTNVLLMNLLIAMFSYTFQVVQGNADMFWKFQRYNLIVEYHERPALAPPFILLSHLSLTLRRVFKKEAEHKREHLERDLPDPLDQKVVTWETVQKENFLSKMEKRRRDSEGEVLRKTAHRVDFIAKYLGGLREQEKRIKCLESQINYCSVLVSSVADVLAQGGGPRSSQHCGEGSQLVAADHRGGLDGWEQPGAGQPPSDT

HUVECs [2] = assay: HUVEC cell death after oxygen/glucose deprivation (cell count, MTT); type: cell-based, human; conditions: 5 μM
Protocol: as §1

HUVECs [3] = assay: HUVEC cell number count after different doses of 9-phenanthrol; type: cell-based, human
Protocol: as §1
To test the functional impact of TRPM4 on HUVECs, the cells were incubated with the TRPM4-specific blocker 9-phenanthrol. […] A study was performed in which 9-phenantrol with the concentration ranged from 0.1 μM to 30 μM was added to HUVECs. […] Thus, 5 μM 9-phenanthrol was used to treat HUVECs.

TRPM4 homomers = TRPM4 homomers (Homo sapiens, UniProt Q8TD43); conditions: Sala-Rabanal M, et al. 2012; cited from earlier work
Sequence of TRPM4 homomers (Q8TD43 whole entry): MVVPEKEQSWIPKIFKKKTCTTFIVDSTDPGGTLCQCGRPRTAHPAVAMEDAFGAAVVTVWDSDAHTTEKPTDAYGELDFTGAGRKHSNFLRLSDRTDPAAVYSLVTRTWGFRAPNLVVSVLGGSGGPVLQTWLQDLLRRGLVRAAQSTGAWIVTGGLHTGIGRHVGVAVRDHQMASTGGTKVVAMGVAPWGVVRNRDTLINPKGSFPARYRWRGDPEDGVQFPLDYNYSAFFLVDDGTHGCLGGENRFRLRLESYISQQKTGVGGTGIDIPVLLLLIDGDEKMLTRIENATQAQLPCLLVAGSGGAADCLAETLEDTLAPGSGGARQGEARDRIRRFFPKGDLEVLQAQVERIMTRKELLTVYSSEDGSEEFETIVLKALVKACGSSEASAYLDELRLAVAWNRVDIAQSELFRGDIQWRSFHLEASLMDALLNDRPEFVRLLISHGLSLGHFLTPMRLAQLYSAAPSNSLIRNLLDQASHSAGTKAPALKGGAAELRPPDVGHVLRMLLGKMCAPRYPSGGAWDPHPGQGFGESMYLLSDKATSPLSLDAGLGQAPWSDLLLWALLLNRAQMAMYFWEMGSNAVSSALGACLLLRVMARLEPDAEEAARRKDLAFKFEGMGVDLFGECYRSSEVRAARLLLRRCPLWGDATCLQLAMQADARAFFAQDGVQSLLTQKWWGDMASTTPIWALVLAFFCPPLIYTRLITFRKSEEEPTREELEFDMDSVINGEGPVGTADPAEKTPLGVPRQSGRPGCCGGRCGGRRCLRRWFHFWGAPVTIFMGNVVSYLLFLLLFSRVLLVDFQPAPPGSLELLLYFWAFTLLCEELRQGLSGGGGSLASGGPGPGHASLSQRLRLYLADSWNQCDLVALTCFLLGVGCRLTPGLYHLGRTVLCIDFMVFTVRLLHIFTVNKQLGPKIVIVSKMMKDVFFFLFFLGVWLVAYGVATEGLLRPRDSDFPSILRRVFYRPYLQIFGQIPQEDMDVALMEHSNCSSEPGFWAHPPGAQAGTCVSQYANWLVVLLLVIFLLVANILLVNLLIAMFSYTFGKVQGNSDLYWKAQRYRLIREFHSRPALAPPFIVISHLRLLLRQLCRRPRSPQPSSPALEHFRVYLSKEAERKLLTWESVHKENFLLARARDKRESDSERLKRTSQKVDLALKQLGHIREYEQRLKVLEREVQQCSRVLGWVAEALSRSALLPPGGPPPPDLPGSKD

SMILES | tube formation (tube branches) on Matrigel (HUVECs [1]) | effect on TRPM5 channel (TRPM5 channel) | cell death after OGD (HUVECs [2]; 24 hours OGD) | MTT assay cell viability (HUVECs [2]; vs control cells) | HUVEC cell number count (HUVECs [2]; vs control cells, normoxia and hypoxia 24 hours) | cell death (HUVECs [3]; 10 μM 9-phenanthrol in culture medium) | cell survival (HUVECs [3]; 30 μM 9-phenanthrol) | cell death (HUVECs [3]; 9-phenanthrol between 0.1 μM and 5 μM) | sensitivity of TRPM4 homomers (TRPM4 homomers)
Oc1cc2ccccc2c2ccccc12 [9-phenanthrol] | large enhancement; also recorded: significantly increased | does not affect | did not reduce cell death | no difference | no difference | Cell death became prominent | Very few cells survived | No difference | –
COc1ccc(Cl)cc1C(=O)NCCc1ccc(S(=O)(=O)NC(=O)NC2CCCCC2)cc1 [glibenclamide] | – | – | – | – | – | – | – | – | not sensitive
